What was measured:
[1] = system: U87MG pLVX-IDH2 R140Q-neo cells; test: U87MG pLVX-IDH2 R140Q-Neo cell based assay (2-HG in media by LC-MS); conditions: 48 hours; for IC50: Homo sapiens, U-87 MG
Method: U87MG pLVX-IDH2 R140Q-Neo Cell Based Assay.
U87MG pLVX-IDH2 R140Q-neo cells are grown in T125 flasks in DMEM containing 10% FBS, 1× penicillin/streptomycin and 500 μg/mL G418. They are harvested by trypsin and seeded into 96 well white bottom plates at a density of 5000 cell/well in 100 μl/well in DMEM with 10% FBS. No cells are plated in columns 1 and 12. Cells are incubated overnight at 37° C. in 5% CO2. The next day compounds are made up at 2× concentration and 100 ul are added to each cell well. The final concentration of DMSO is 0.2% and the DMSO control wells are plated in row G. The plates are then placed in the incubator for 48 hours. At 48 hours, 100 ul of media is removed from each well and analyzed by LC-MS for 2-HG concentrations. The cell plate is placed back in the incubator for another 24 hours. At 72 hours post compound addition, 10 mL/plate of Promega Cell Titer Glo reagent is thawed and mixed. The cell plate is removed from the incubator and allowed to equilibrate to room temperature. Then 100 ul of reagent is added to each well of media. The cell plate is then placed on an orbital shaker for 10 minutes and then allowed to sit at room temperature for 20 minutes. The plate is then read for luminescence with an integration time of 500 ms to determine compound effects on growth inhibition.

[2] = target: T1, IDH2 R140Q (Homo sapiens, UniProt P48735, R140Q); test: IDH2 R140Q enzymatic assay (cofactor depletion assay, diaphorase/resazurin readout); format: biochemical; conditions: read-out: Enz R140Q
T1 sequence (P48735 40-452 R140Q): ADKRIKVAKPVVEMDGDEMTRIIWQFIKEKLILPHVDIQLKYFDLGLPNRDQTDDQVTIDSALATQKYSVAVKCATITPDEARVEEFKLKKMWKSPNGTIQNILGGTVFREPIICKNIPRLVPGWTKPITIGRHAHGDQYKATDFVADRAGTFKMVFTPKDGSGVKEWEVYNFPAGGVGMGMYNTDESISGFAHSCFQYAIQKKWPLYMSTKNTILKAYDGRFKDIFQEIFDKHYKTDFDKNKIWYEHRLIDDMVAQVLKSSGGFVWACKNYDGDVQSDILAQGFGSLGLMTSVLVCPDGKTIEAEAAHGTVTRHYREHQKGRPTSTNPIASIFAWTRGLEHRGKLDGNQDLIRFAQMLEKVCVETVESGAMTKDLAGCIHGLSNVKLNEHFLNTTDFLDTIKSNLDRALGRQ
Method: [The source words this procedure for another variant and says it was used here with some conditions changed.] Compounds are assayed for IDH2 R172K inhibitory activity through a cofactor depletion assay. […] The reaction is terminated by the addition of a second enzyme, diaphorase, and a corresponding substrate, resazurin. Diaphorase reduces resazurin to the highly fluorescent resorufin with the concomitant oxidation of NADPH to NADP, both halting the IDH2 reaction by depleting the available cofactor pool and facilitating quantitation of the amount of cofactor remaining after a specific time period through quantitative production of an easily detected fluorophore.
The test compound is then incubated for one hour at room temperature with the enzyme; before starting the IDH2 reaction with the addition of 10 μl of substrate mix containing 50 μM NADPH and 6.3 mM α-KG in the buffer described above. After a further one hour of incubation at room temperature, the reaction is halted and the remaining NADPH measured through conversion of resazurin to resorufin by the addition of 25 μl Stop Mix (36 μg/ml diaphorase enzyme and 60 μM resazurin; in buffer). After one minute of incubation the plate is read on a plate reader at Ex544/Em590.

Row | Structure (SMILES) | IC50 [1] | IC50 [2] | Cell R140Q [1]
1 | CC(C)Nc1nc(Nc2ccnc(C(F)(F)F)c2)nc(C2=CC(=O)NCC2)n1 [Compound 12] | 100 to 1000 nM | < 100 nM | 
2 | CC1CC(C)CC(c2nc(Nc3ccnc(C(F)(F)F)c3)nc(NC(C)C)n2)C1 (stereo not shown) [Compound 10] |  | 100 to 1000 nM | 
3 | CC(C)Nc1nc(Nc2ccnc(C(F)(F)F)c2)nc(C2=CC(O)CCC2)n1 (stereo not shown) [Compound 7, 3-(4-(isopropylamino)-6-((2-(trifluoromethyl)pyridin-4-yl)amino)-1,3,5-triazin-2-yl)cyclohex-2-enol] | < 100 nM | < 100 nM | 
4 | CC(C)Nc1nc(Nc2ccnc(C(F)(F)F)c2)nc(C2=CC(=O)CCC2)n1 [Compound 6, 3-(4-(isopropylamino)-6-((2-(trifluoromethyl)pyridin-4-yl)amino)-1,3,5-triazin-2-yl)cyclohex-2-enone] | < 100 nM | 100 to 1000 nM | 
5 | CC(C)Nc1nc(Nc2ccnc(C(F)(F)F)c2)nc(C(C)(C)C)n1 [Compound 3, 6-(tert-butyl)-N2-isopropyl-N4-(2-(trifluoromethyl)pyridin-4-yl)-1,3,5-triazine-2,4-diamine] | 100 to 1000 nM | 100 to 1000 nM | 
6 | CC1CCCC(c2nc(Nc3ccnc(C(F)(F)F)c3)nc(NC(C)C)n2)C1 (stereo not shown) [Compound 9] | 100 to 1000 nM | < 100 nM | 
7 | CC(C)Nc1nc(Nc2ccnc(C(F)(F)F)c2)nc(C2=CCCCC2)n1 [Compound 1, 6-(cyclohex-1-en-1-yl)-N2-isopropyl-N4-(2-(trifluoromethyl)pyridin-4-yl)-1,3,5-triazine-2,4-diamine] | < 100 nM | < 100 nM | 

Now from value to molecule, other results behind:

Row | IC50 [1] | IC50 [2] | Structure (SMILES) | Cell R140Q [1]
8 |  | 1000 to 10000 nM | CC(C)Nc1nc(Nc2ccnc(C(F)(F)F)c2)nc(C2CCNC(=O)C2)n1 (stereo not shown) [Compound 13] | No fit
9 | < 100 nM | 100 to 1000 nM | CC(C)Nc1nc(Nc2ccnc(C(F)(F)F)c2)nc(C2CCCC(=O)C2)n1 (stereo not shown) [Compound 8, 3-(4-(isopropylamino)-6-((2-(trifluoro-methyl)pyridin-4-yl)amino)-1,3,5-triazin-2-yl)cyclohexanone] | 
10 | < 100 nM | < 100 nM | CC(C)Nc1nc(Nc2ccnc(C(F)(F)F)c2)nc(C2CCCCC2)n1 [Compound 2] | 
11 | 100 to 1000 nM | < 100 nM | CC(C)Nc1nc(Nc2ccnc(C(F)(F)F)c2)nc(C2CCC2)n1 [Compound 5, 6-cyclobutyl-N2-isopropyl-N4-(2-(trifluoromethyl)pyridin-4-yl)-1,3,5-triazine-2,4-diamine] | 
12 | < 100 nM | < 100 nM | CC(C)Nc1nc(Nc2ccnc(C(F)(F)F)c2)nc(C2CCCC(O)C2)n1 (stereo not shown) [Compound 11, 3-(4-(isopropylamino)-6-((2-(trifluoromethyl)pyridin-4-yl)amino)-1,3,5-triazin-2-yl)cyclohexanol] | 
13 | 100 to 1000 nM | < 100 nM | CC(C)Nc1nc(Nc2ccnc(C(F)(F)F)c2)nc(C2CCCC2)n1 [Compound 4, 6-cyclopentyl-N2-isopropyl-N4-(2-(trifluoromethyl)pyridin-4-yl)-1,3,5-triazine-2,4-diamine] | 

Reference: patent US10017495B2, “Therapeutically active compounds and their methods of use” (AGIOS PHARMACEUTICALS, INC, priority 2013, dated 2018)
